# Laboratory results taken from patent publication US5488060A, “Substituted thiadiazoles, compositions containing them and their use as antimicrobial and marine antifouling agents” (The Dow Chemical Company, priority 1994, dated 1996).
# Read-outs that look alike come from different tables or passages of the source.
# What was measured:
# Type in all cases: cell-based
# [1] = test system: Pseudomonas aeruginosa (PRD-10); test: Minimum inhibitory concentration (MIC) in nutrient agar, Pseudomonas aeruginosa PRD-10; conditions: 48 h
# Procedure: (§1) The antimicrobial activity of the compounds of the present invention is set forth as the minimum inhibitory concentration (MIC) for the active compounds and is determined for nine (9) bacteria, using nutrient agar, and seven (7) yeast and fungi, using malt yeast agar. This determination is conducted using a one percent solution of the test compound prepared in a mixture of acetone and water.
# (§2) Nutrient agar is prepared at pH 6.8, representing a neutral medium, and at pH 8.2, representing an alkaline medium. The nutrient agars are prepared by adding 23 g of nutrient agar to one-liter of deionized water. In addition, the alkaline medium is prepared by adjusting a 0.04M solution of N-[tris-(hydroxymethyl)methyl]glycine buffered deionized water with concentrated sodium hydroxide to a pH of 8.5.
# (§3) The test tubes containing the agar are cooled in a water bath until the temperature of the agar is 48° C. Then, an appropriate amount of the one percent solution of the test compound is added (except in the controls where no compound is added) to the respective test tubes so that the final concentrations are 500, […], 100, 50, 25, 10, 5, 2.5, 1.0 and zero parts per million of the test compound in the agar, thus having a known concentration of test compound dispersed therein. The contents of the test tubes are then transferred to respective petri plates. After drying for 24 hours, the petri plates containing nutrient agar are inoculated with bacteria and those containing malt yeast agar are inoculated with yeast and fungi.
# (§4) The inoculation with bacteria is accomplished by using the following procedure. Twenty-four hour-cultures of each of the bacteria are prepared by incubating the respective bacteria in tubes containing nutrient broth for 24 hours at 30° C. in a shaker. Dilutions of each of the 24 hour-cultures are made so that nine separate suspensions (one for each of the nine test bacteria) are made, each containing 10^8 colony forming units (CFU) per mL of suspension of a particular bacteria. Aliquots of 0.3 mL of each of the bacterial suspensions are used to fill the individual wells of Steer's Replicator. For each microbial suspension, 0.3 mL was used to fill three wells (i.e., three wells of 0.3 mL each) so that for the nine different bacteria, 27 wells are filled. The Steer's Replicator is then used to inoculate both the neutral and alkaline pH nutrient agar petri plates.
# (§5) The inoculated petri plates are incubated at 30° C. for 48 hours and then read to determine if the test compound which is incorporated into the agar prevented growth of the respective bacteria.
# [2] = test system: Salmonella choleraesuis (Se); test: Minimum inhibitory concentration (MIC) in nutrient agar, Salmonella choleraesuis; conditions: Salmonella enterica, 48 h
# Procedure: as §1, §2, §3, §4, §5
# Aspergillus niger (An) = test: Minimum inhibitory concentration (MIC) in malt yeast agar, Aspergillus niger
# Procedure: as §1
# (§6) Malt yeast agar is prepared at pH 5.5 by adding 3 g yeast extract and 45 g malt agar per liter of deionized water. The specific agar is dispensed in 30 mL aliquots into 25×200 mm test tubes, capped and autoclaved for 15 minutes at 115° C.
# as §3
# (§7) The inoculation with the yeast and fungi is accomplished as follows. Cultures of yeast and fungi are incubated for seven days on malt yeast agar at 30° C. These cultures are used to prepare suspensions by the following procedure. A suspension of each organism is prepared by adding 10 mL of sterile saline and 10 microliters of octylphenoxy polyethoxy ethanol to the agar slant of yeast or fungi. The sterile saline/octylphenoxy potyethoxy ethanol solution is then agitated with a sterile swab to suspend the microorganism grown on the slant. Each resulting suspension is diluted into sterile saline (1 part suspension: 9 parts sterile saline). Aliquots of these dilutions are placed in individual wells of Steer's Replicator and petri plates inoculated as previously described. The petri plates are incubated at 30° C. and read after 48 hours for yeast and 72 hours for fungi.
# [3] = test system: Penicillium chrysogenum (Pc); test: Minimum inhibitory concentration (MIC) in malt yeast agar, Penicillium chrysogenum
# Procedure: as §1, §6, §3, §7
# Candida albicans (Ca) = test: Minimum inhibitory concentration (MIC) in malt yeast agar, Candida albicans
# Procedure: as §1, §6, §3, §7
# [4] = test system: Klebsiella pneumoniae (Kp); test: Minimum inhibitory concentration (MIC) in nutrient agar, Klebsiella pneumoniae
# Procedure: as §1, §2, §3, §4, §5
# Proteus vulgaris (Pv) = test: Minimum inhibitory concentration (MIC) in nutrient agar, Proteus vulgaris; conditions: 48 h
# Procedure: as §1, §2, §3, §4, §5
# [5] = test system: Pseudomonas aeruginosa (Pa); test: Minimum inhibitory concentration (MIC) in nutrient agar, Pseudomonas aeruginosa; conditions: 30° C., 48 hours, read-out: Minimum Inhibitory Concentration, Pa
# Procedure: as §1, §2, §3, §4, §5
# [6] = test system: Staphylococcus aureus (Sa); test: Minimum inhibitory concentration (MIC) in nutrient agar, Staphylococcus aureus
# Procedure: as §1, §2, §3, §4, §5
# [7] = test system: Aureobasidium pullulan (Ap); test: Minimum inhibitory concentration (MIC) in malt yeast agar, Aureobasidium pullulan
# Procedure: as §1, §6, §3, §7
# Fusarium oxysporum (Fo) = test: Minimum inhibitory concentration (MIC) in malt yeast agar, Fusarium oxysporum; conditions: pH 5.5; malt yeast agar, 30° C., 72 hours for fungi; read-out: Minimum Inhibitory Concentration, Fo
# Procedure: as §1, §6, §3, §7
# Bacillus subtilis (Bs) = test: Minimum inhibitory concentration (MIC) in nutrient agar, Bacillus subtilis
# Procedure: as §1, §2, §3, §4, §5
# Escherichia coli (Ec) = test: Minimum inhibitory concentration (MIC) in nutrient agar, Escherichia coli
# Procedure: as §1, §2, §3, §4, §5
# [8] = test system: Enterobacter aerogenes (Ea); test: Minimum inhibitory concentration (MIC) in nutrient agar, Enterobacter aerogenes; conditions: Klebsiella aerogenes, 48 h
# Procedure: as §1, §2, §3, §4, §5
# Trichoderma viride (Tv) = test: Minimum inhibitory concentration (MIC) in malt yeast agar, Trichoderma viride; conditions: pH 5.5; malt yeast agar, 30° C., 72 hours for fungi; read-out: Minimum Inhibitory Concentration, Tv
# Procedure: as §1, §6, §3, §7
# [9] = test system: Saccharomyces cerevisiae (Sc); test: Minimum inhibitory concentration (MIC) in malt yeast agar, Saccharomyces cerevisiae; conditions: pH 5.5, malt yeast agar, 30° C., 48 hours for yeast, read-out: Minimum Inhibitory Concentration, SC
# Procedure: as §1, §6, §3, §7
# [10] = pH 6.8, read-out: Minimum Inhibitory Concentration, PRD
# [11] = pH 8.2, read-out: Minimum Inhibitory Concentration, PRD
# [12] = pH 6.8, read-out: Minimum Inhibitory Concentration, SC
# [13] = pH 8.2, read-out: Minimum Inhibitory Concentration, SC
# [14] = pH 5.5, malt yeast agar, 30° C., 72 hours for fungi, read-out: Minimum Inhibitory Concentration, PC
# [15] = pH 5.5, malt yeast agar, 30° C., 48 hours for yeast, read-out: Minimum Inhibitory Concentration, Ca
# [16] = 48 h, pH 8.2, read-out: Minimum Inhibitory Concentration, Kp
# [17] = pH 6.8, nutrient agar, 30° C., 48 hours, read-out: Minimum Inhibitory Concentration, Kp
# [18] = pH 6.8, read-out: Minimum Inhibitory Concentration, Pv
# [19] = pH 8.2, read-out: Minimum Inhibitory Concentration, Pv
# [20] = 48 h, pH 8.2, read-out: Minimum Inhibitory Concentration, Sa
# [21] = pH 6.8, nutrient agar, 30° C., 48 hours, read-out: Minimum Inhibitory Concentration, Sa
# [22] = pH 5.5, malt yeast agar, 30° C., read-out: Minimum Inhibitory Concentration, Ap
# [23] = 48 h, pH 8.2, read-out: Minimum Inhibitory Concentration, Bs
# [24] = pH 6.8, nutrient agar, 30° C., 48 hours, read-out: Minimum Inhibitory Concentration, Bs
# [25] = 48 h, pH 6.8, read-out: Minimum Inhibitory Concentration, Ec
# [26] = 48 h, pH 8.2, read-out: Minimum Inhibitory Concentration, Ec
# [27] = pH 6.8, read-out: Minimum Inhibitory Concentration, Ea
# [28] = pH 8.2, read-out: Minimum Inhibitory Concentration, Ea
# [29] = pH 5.5, malt yeast agar, 30° C., 72 hours for fungi, read-out: Minimum Inhibitory Concentration, An
SMILES,"MIC [1, 10]","MIC [1, 11]","MIC [2, 12]","MIC [2, 13]","MIC [3, 14]",MIC (Candida albicans (Ca); [15]),"MIC [4, 16]","MIC [4, 17]",MIC (Proteus vulgaris (Pv); [18]),MIC (Proteus vulgaris (Pv); [19]),"MIC ([5]; pH 6.8, nutrient agar)","MIC ([5]; pH 8.2, nutrient agar)","MIC [6, 20]","MIC [6, 21]",MIC (Fusarium oxysporum (Fo)),MIC (Escherichia coli (Ec); [25]),"MIC [8, 27]","MIC [8, 28]",MIC (Trichoderma viride (Tv)),MIC [9],further results
"N#CSCSc1nsnc1-c1ccc(Br)cc1 [Example XVII, 4-(4-Bromophenyl)-3-thiocyanatomethylthio-1,2,5-thiadiazole]",> 500 µg/mL,> 500 µg/mL,> 500 µg/mL,> 500 µg/mL,9 µg/mL,500 µg/mL,> 500 µg/mL,> 500 µg/mL,> 500 µg/mL,> 500 µg/mL,> 500 µg/mL,> 500 µg/mL,> 500 µg/mL,> 500 µg/mL,250 µg/mL,> 500 µg/mL,> 500 µg/mL,> 500 µg/mL,500 µg/mL,9 µg/mL,"MIC (Aspergillus niger (An); 72 h, pH 5.5, read-out: Minimum Inhibitory Concentration, An): 25 µg/mL; MIC [7, 22]: 9 µg/mL; MIC (Bacillus subtilis (Bs); [23]): 25 µg/mL; MIC (Bacillus subtilis (Bs); [24]): 9 µg/mL; MIC (Escherichia coli (Ec); [26]): > 500 µg/mL"
"CSc1ccc(-c2nsnc2SCSC#N)cc1 [Example XXIV, 4-(4-Methylthiophenyl)-3-thiocyanatomethylthio-1,2,5-thiadiazole]",500 µg/mL,> 500 µg/mL,500 µg/mL,> 500 µg/mL,500 µg/mL,500 µg/mL,> 500 µg/mL,500 µg/mL,500 µg/mL,> 500 µg/mL,500 µg/mL,> 500 µg/mL,> 500 µg/mL,500 µg/mL,500 µg/mL,500 µg/mL,500 µg/mL,> 500 µg/mL,500 µg/mL,500 µg/mL,"MIC (Aspergillus niger (An); [29]): 500 µg/mL; MIC [7, 22]: 500 µg/mL; MIC (Bacillus subtilis (Bs); 48 h, pH 6.8, read-out: Minimum Inhibitory Concentration, Bs): 500 µg/mL; MIC (Bacillus subtilis (Bs); [23]): 500 µg/mL; MIC (Escherichia coli (Ec); pH 8.2, nutrient agar, 30° C., 48 hours, read-out: Minimum Inhibitory Concentration, Ec): 250 µg/mL"
"N#CSCSc1nsnc1-c1cccc(Cl)c1 [Example XIX, 4-(3-Chlorophenyl)-3-thiocyanatomethylthio-1,2,5-thiadiazole]",500 µg/mL,> 500 µg/mL,500 µg/mL,> 500 µg/mL,–,–,> 500 µg/mL,500 µg/mL,500 µg/mL,> 500 µg/mL,500 µg/mL,> 500 µg/mL,–,9 µg/mL,500 µg/mL,500 µg/mL,500 µg/mL,> 500 µg/mL,> 500 µg/mL,1 µg/mL,"MIC (Aspergillus niger (An); [29]): 5 µg/mL; MIC ([3]; 72 h, pH 5.5, read-out: Minimum Inhibitory Concentration, PC): 2.5 µg/mL; MIC (Candida albicans (Ca); 48 h, pH 5.5, read-out: Minimum Inhibitory Concentration, Ca): 25 µg/mL; MIC ([6]; pH 8.2, nutrient agar, 30° C., 48 hours, read-out: Minimum Inhibitory Concentration, Sa): 9 µg/mL; MIC ([7]; pH 5.5, read-out: Minimum Inhibitory Concentration, Ap): 2.5 µg/mL; MIC (Bacillus subtilis (Bs); [24]): 9 µg/mL; MIC (Bacillus subtilis (Bs); pH 8.2, nutrient agar, 30° C., 48 hours, read-out: Minimum Inhibitory Concentration, Bs): 9 µg/mL; MIC (Escherichia coli (Ec); [26]): 500 µg/mL"
